Data: patent US7288573B2, “Method of repelling insects” (priority 2001, dated 2007)
Where “and” joins values, the source holds several entries; their conditions need not be identical. Equal values may be shown once. Entries after “also recorded” stand apart in the source; their conditions may differ.

System: Culex spp.
Test: Mosquito repellency of 2-undecanone and 2-tridecanone, treated arm in cage (Example 6)
Type: in vivo
Conditions: for No. landings: single replicates; for observed repellent / residual activity (words): observed up to 24 hours post-treatment; for overall repellent activity, comparison of the two compounds: 100%, 50% and 20% concentrations, 0 to 24 hours
Source text: Cages. The same two mosquitoes cages described in Example 5 were used for this example. The cages were constructed using wood framing and fine mesh wire screen. The dimensions of each cage were 59 cm high×55 cm wide by 59 cm deep. A hinged access door was installed at the front of each chamber for insertion of the water-filled containers filled with mosquito pupae. Also present at the front of each chamber was a 9 cm diameter plastic tube (i.d.) for insertion of the arm of the investigator. The arm insertion tube was sealed with a rubber stopper when not in use.
Mosquitoes and Mosquito Rearing. Mosquitoes (Culex spp.) were obtained (as pupae and larvae) from Carolina Biological Supply Co., Burlington, N.C., USA in two successive shipments, so as to provide a continuing long term supply of fresh insects. Following their arrival, the mosquitoes were divided into approximately equal numbers in multiple water-filled containers and placed in the two cages described above. The larval and pupal cultures were fed with insect rearing compound. In addition, the water was changed regularly by filtration to minimize contamination and prevent overcrowding. Continuous culturing made it possible to increase the mosquito numbers to more than 100 insects per cage.
Test Compounds and Testing Schedule. Testing was done with two compounds, 2-undecanone, and 2-tridecanone, for repellent activity by treating one arm of the investigator with approximately 1 ml of the test solution. Following several minutes for solvent evaporation, the treated arm was inserted through the insertion tube for 5 minutes. The other arm was treated with isoprbpanol (control) or a different concentration of the compound, and inserted into the insertion tube of the adjacent chamber. Next, the behavior of the mosquitoes in response to the presence of the investigator's arms was noted. Mosquito behavior was recorded as 1) landing or attempting to land on the investigator's arm, or coming to rest on the wire screen immediately adjacent to the investigator's arm or hand, versus 2) dispersal away from the treated arm towards the opposite ends of the cage. The approximate number of mosquitoes present at the beginning of the observations was noted. For treatments with 2-undecanone, observations were made initially to confirm 100% repellent activity of the compound immediately after treatment but observations were not recorded. Recording of efficacy was delayed until 6 hours after treatment, and then repeated at 12 and 24 hours post-treatment. For treatment with 2-tridecanone, the observations commenced immediately after solvent drying; then, the observations were repeated (without re-treatment of the investigator's hand and arm) after 6 hours, 12 hours and 24 hours. Treatments were alternated between the different cages. […]
2-tridecanone was obtained as a solid. To prepare this compound for testing, it was subjected to gentle heating in a 37° C. water bath to liquefy it, and aliquots of the stock were diluted volume: volume with isopropanol to 50% concentration and 20% concentration. Sufficient pure compound was retained for direct application (undiluted).
Tests were done at concentrations of 100%, 50%, and 20% for each of the two compounds, as well as 20% DEET, and the isopropanol control.
Table 3 presents the efficacy found at the different time intervals for each of the compounds at the three different concentrations and for DEET. Efficacy was calculated according to the formula: [(no. landings/no. present in control)−(no. landings/no. present in experinental) divided by (no. landings/no. present in control)]×100.

[1] = 20% concentration, 6 hours after treatment
[2] = 20% concentration, 12 hours after treatment
[3] = 20% concentration, 24 hours after treatment
[4] = 50% concentration, 6 hours after treatment
[5] = 50% concentration, 6 hours after treatment, listed as IBI-246
[6] = 50% concentration, 12 hours after treatment
[7] = 50% concentration, 12 hours after treatment, listed as IBI-246
[8] = 50% concentration, 24 hours after treatment
[9] = 50% concentration, 24 hours after treatment, listed as IBI-246
[10] = 100% concentration, 6 hours after treatment
[11] = 100% concentration, 12 hours after treatment
[12] = 100% concentration, 24 hours after treatment
[13] = 20% concentration, 0 hours after treatment
[14] = 50% concentration, 0 hours after treatment
[15] = 100% concentration, 0 hours after treatment

CCCCCCCCCC(C)=O [2-undecanone] was tested, and the “Percent Efficacy Post-Treatment” value (20% concentration, 0 hours) was 100%, the “Percent Efficacy Post-Treatment” value (20% concentration, 6 hours) was 46.6% and the “No. landings, Mean” value [1] was 0.7. For the same compound, the “Percent = [(No. landings/No. present)] × 100” value [1] was 2.5%, the “Percent = [(No. landings/No. present)] × 100” value (20% concentration, 6 hours after treatment, listed as 2-Undecanone) was 7.1% and the No. landings [1] was 0 (2×) and 2. For the same compound, the “Percent Efficacy Post-Treatment” value (20% concentration, 12 hours) was 0%, the “No. landings, Mean” value [2] was 5.0 and the “Percent = [(No. landings/No. present)] × 100” value [2] was 17.1%. For the same compound, the “Percent = [(No. landings/No. present)] × 100” value (20% concentration, 12 hours after treatment, listed as 2-Undecanone) was 17.1%, the No. landings [2] was 5 and 6 and 4 and the “Percent Efficacy Post-Treatment” value (20% concentration, 24 hours) was 0%. The “No. landings, Mean” value [3] was 4.0, the “Percent = [(No. landings/No. present)] × 100” value [3] was 13.4% and the “Percent = [(No. landings/No. present)] × 100” value (20% concentration, 24 hours after treatment, listed as 2-Undecanone) was 13.8%. The No. landings [3] was 4, the “Percent Efficacy Post-Treatment” value (50% concentration, 0 hours) was 100% and the “Percent Efficacy Post-Treatment” value (50% concentration, 6 hours) was 83.5%. For the same compound, the “No. landings, Mean” value [4] was 1.3, the “Percent = [(No. landings/No. present)] × 100” value [4] was 1.1% and the “Percent = [(No. landings/No. present)] × 100” value [5] was 2.2%. For the same compound, the No. landings [5] was 0 (3×) and 1 and 3 and 4, the “Percent Efficacy Post-Treatment” value (50% concentration, 12 hours) was 65.3% and the “No. landings, Mean” value [6] was 7.2. The “Percent = [(No. landings/No. present)] × 100” value [6] was 5.8%, the “Percent = [(No. landings/No. present)] × 100” value [7] was 5.8% and the No. landings [7] was 1 and 2 (2×) and 13 (2×) and 12. The “Percent Efficacy Post-Treatment” value (50% concentration, 24 hours) was 56.5%, the “No. landings, Mean” value [8] was 7.5 and the “Percent = [(No. landings/No. present)] × 100” value [8] was 5.7%. The “Percent = [(No. landings/No. present)] × 100” value [9] was 5.7%, the No. landings [9] was 3 and 2 (2×) and 11 (2×) and 16 and the “Percent Efficacy Post-Treatment” value (100% concentration, 0 hours) was 100%. For the same compound, the “Percent Efficacy Post-Treatment” value (100% concentration, 6 hours) was 100%, the “No. landings, Mean” value [10] was 0 and the “Percent = [(No. landings/No. present)] × 100” value [10] was 0%. The No. landings [10] was 0, the “Percent Efficacy Post-Treatment” value (100% concentration, 12 hours) was 48.5% and the “No. landings, Mean” value [11] was 1.7. The “Percent = [(No. landings/No. present)] × 100” value [11] was 8.6%, the “Percent = [(No. landings/No. present)] × 100” value (100% concentration, 12 hours after treatment, listed as 2-Undecanone) was 8.6% and the No. landings [11] was 3 and 1 (2×). The “Percent Efficacy Post-Treatment” value (100% concentration, 24 hours) was 0%, the “No. landings, Mean” value [12] was 3.0 and the “Percent = [(No. landings/No. present)] × 100” value [12] was 19.1%. The No. landings [12] was 3, the “observed repellent / residual activity (words)” value (100% concentration) was “absent after 24 hours post-treatment” and the “observed repellent / residual activity (words)” value (100% concentration, listed as 2-Undecanone) was “Comments: Strong avoidance response was still evident at 6 hours. Avoidance was much; also recorded: weaker after 12 hours and no obvious avoidance, no dispersal away from the treated”. For the same compound, the “overall repellent activity, comparison of the two compounds” value was “greatest activity overall”.
With CCN(CC)C(=O)c1cccc(C)c1 [DEET, N,N-diethyl-meta-toluamide, reference compound] the “Percent Efficacy Post-Treatment” value (20% concentration, 0 hours) was 91.1%, the “No. landings, Mean” value [13] was 1.3 and the “Percent = [(No. landings/No. present)] × 100” value [13] was 1.3%. For the same compound, the No. landings [13] was 2 (2×) and 0, the “Percent Efficacy Post-Treatment” value (20% concentration, 6 hours) was 63.9% and the “No. landings, Mean” value [1] was 5.7. For the same compound, the “Percent = [(No. landings/No. present)] × 100” value [1] was 4.8%, the No. landings [1] was 10 and 4 and 3 and the “Percent Efficacy Post-Treatment” value (20% concentration, 12 hours) was 31.7%. The “No. landings, Mean” value [2] was 15.0, the “Percent = [(No. landings/No. present)] × 100” value [2] was 11.4% and the No. landings [2] was 12 and 15 and 18. For the same compound, the “Percent Efficacy Post-Treatment” value (20% concentration, 24 hours) was 16.8%, the “No. landings, Mean” value [3] was 13.0 and the “Percent = [(No. landings/No. present)] × 100” value [3] was 10.9%. For the same compound, the No. landings [3] was 14 (2×) and 11 and the “observed repellent / residual activity (words)” value (20% concentration) was “strong immediate and residual activity for up to 6 hours, weak activity at 12 hours and none thereafter; also recorded: treatment, but no residual activity was observed at 12 or 24 hours post-treatment”.
With CCCCCCCCCCCC(C)=O [2-tridecanone] the “Percent Efficacy Post-Treatment” value (20% concentration, 0 hours) was 1.5%^, the “No. landings, Mean” value [13] was 4.0 and the “Percent = [(No. landings/No. present)] × 100” value [13] was 14.4%. For the same compound, the No. landings [13] was 4 and 3 and 5, the “Percent Efficacy Post-Treatment” value (20% concentration, 6 hours) was 0% and the “No. landings, Mean” value [1] was 4.7. The “Percent = [(No. landings/No. present)] × 100” value [1] was 14.0%, the No. landings [1] was 3 and 4 and 7 and the “Percent Efficacy Post-Treatment” value (20% concentration, 12 hours) was 22.2%. The “No. landings, Mean” value [2] was 4.7, the “Percent = [(No. landings/No. present)] × 100” value [2] was 13.0% and the No. landings [2] was 3 and 5 and 6. The “Percent Efficacy Post-Treatment” value (20% concentration, 24 hours) was 0%, the “No. landings, Mean” value [3] was 5.7 and the “Percent = [(No. landings/No. present)] × 100” value [3] was 14.9%. The No. landings [3] was 5 and 6 (2×), the “observed repellent / residual activity (words)” value (20% concentration) was “repellant activity was not observed” and the “observed repellent / residual activity (words)” value (20% concentration, listed as 2-Tridecanone) was “Comments: No residual repellent activity was observed”. For the same compound, the “Percent Efficacy Post-Treatment” value (50% concentration, 0 hours) was 95.2%, the “No. landings, Mean” value [14] was 0.7 and the “Percent = [(No. landings/No. present)] × 100” value [14] was 0.7%. The “Percent = [(No. landings/No. present)] × 100” value (50% concentration, 0 hours after treatment, listed as 2-Tridecanone) was 2.4%, the No. landings [14] was 0 and 1 (2×) and the “Percent Efficacy Post-Treatment” value (50% concentration, 6 hours) was 67.7%. For the same compound, the “No. landings, Mean” value [4] was 1.3, the “Percent = [(No. landings/No. present)] × 100” value [4] was 4.3% and the “Percent = [(No. landings/No. present)] × 100” value (50% concentration, 6 hours after treatment, listed as 2-Tridecanone) was 4.3%. For the same compound, the No. landings [4] was 3 and 0 and 1, the “Percent Efficacy Post-Treatment” value (50% concentration, 12 hours) was 0% and the “No. landings, Mean” value [6] was 5.7. The “Percent = [(No. landings/No. present)] × 100” value [6] was 19.7%, the No. landings [6] was 7 and 4 and 6 and the “Percent Efficacy Post-Treatment” value (50% concentration, 24 hours) was 0%. For the same compound, the “No. landings, Mean” value [8] was 5.0, the “Percent = [(No. landings/No. present)] × 100” value [8] was 18.7% and the No. landings [8] was 7 and 4 (2×). For the same compound, the “observed repellent / residual activity (words)” value (50% concentration) was “activity greatly diminished or was absent after 12 and 24 hours”, the “Percent Efficacy Post-Treatment” value (100% concentration, 0 hours) was 87.7% and the “No. landings, Mean” value [15] was 1.3. For the same compound, the “Percent = [(No. landings/No. present)] × 100” value [15] was 1.8%, the “Percent = [(No. landings/No. present)] × 100” value (100% concentration, 0 hours after treatment, listed as 2-Tridecanone) was 1.8% and the No. landings [15] was 0 and 1 and 3. For the same compound, the “Percent Efficacy Post-Treatment” value (100% concentration, 6 hours) was 18.1%, the “No. landings, Mean” value [10] was 9.7 and the “Percent = [(No. landings/No. present)] × 100” value [10] was 10.9%. For the same compound, the No. landings [10] was 9 and 10 (2×), the “Percent Efficacy Post-Treatment” value (100% concentration, 12 hours) was 41.9% and the “No. landings, Mean” value [11] was 10.3. The “Percent = [(No. landings/No. present)] × 100” value [11] was 9.7%, the No. landings [11] was 16 and 7 and 8 and the “Percent Efficacy Post-Treatment” value (100% concentration, 24 hours) was 0%. The “No. landings, Mean” value [12] was 15.0, the “Percent = [(No. landings/No. present)] × 100” value [12] was 13.3% and the No. landings [12] was 17 and 15 and 13. The “observed repellent / residual activity (words)” value (100% concentration) was “Comments: The compound was highly repellent. A huge cloud of mosquitoes retreated” and the “overall repellent activity, comparison of the two compounds” value was “less effective as a repellent against mosquitoes than 2-undecanone”.
